Laboratory results as given in paper PMC10709440, “High-throughput ligand profile characterization in novel cell lines expressing seven heterologous insect olfactory receptors for the detection of volatile plant biomarkers” (Scientific Reports, 2023).
Read-outs that look alike come from different tables or passages of the source.

Tests used:
[1] = target: T1, Drosophila OR49b (Drosophila melanogaster, UniProt Q9V6H2); test: cell-based; details: for Average response: mean of biological replicates; for activation at 1 µM / activation at 10 µM / activation at 100 µM: HEK293
T1 construct: expressed in transfected cells
T1 sequence (Q9V6H2 1-375): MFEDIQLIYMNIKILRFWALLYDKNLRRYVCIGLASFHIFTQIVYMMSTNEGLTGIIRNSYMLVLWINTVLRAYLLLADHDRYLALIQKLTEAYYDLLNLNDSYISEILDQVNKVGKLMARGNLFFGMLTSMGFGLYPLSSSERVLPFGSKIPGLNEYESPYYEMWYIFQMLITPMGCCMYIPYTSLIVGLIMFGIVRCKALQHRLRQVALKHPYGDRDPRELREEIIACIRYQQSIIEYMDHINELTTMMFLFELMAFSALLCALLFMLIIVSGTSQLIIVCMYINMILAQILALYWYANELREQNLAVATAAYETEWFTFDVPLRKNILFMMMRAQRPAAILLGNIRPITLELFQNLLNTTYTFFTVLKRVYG
T1 sequence (Q9VNB5 1-486 partner): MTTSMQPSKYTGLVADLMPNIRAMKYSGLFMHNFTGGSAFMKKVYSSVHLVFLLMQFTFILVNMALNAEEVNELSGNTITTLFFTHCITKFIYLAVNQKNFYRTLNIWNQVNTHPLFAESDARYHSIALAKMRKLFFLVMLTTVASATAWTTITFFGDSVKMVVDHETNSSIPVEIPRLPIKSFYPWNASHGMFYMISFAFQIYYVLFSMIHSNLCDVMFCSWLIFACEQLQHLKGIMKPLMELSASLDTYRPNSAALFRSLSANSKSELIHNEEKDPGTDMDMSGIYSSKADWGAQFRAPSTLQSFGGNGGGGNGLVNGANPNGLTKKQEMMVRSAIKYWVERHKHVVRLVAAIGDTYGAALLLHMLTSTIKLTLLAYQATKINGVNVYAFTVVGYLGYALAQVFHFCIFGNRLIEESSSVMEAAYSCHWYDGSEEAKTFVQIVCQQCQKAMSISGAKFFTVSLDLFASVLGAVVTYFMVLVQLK
Outline: (§1)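 Responses are VUAA1-normalized ΔF: each VOC-evoked calcium signal, (FMAX−F0)/F0 over 30 s after injection, divided by the same line's mean 50 µM VUAA1 response. Cells were doxycycline-induced HEK293 with GCaMP6 and the cognate Drosophila OR, in HEPES buffer pH 7.3; ligands tested 0.01–100 μM.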

[2] = target: T2, Drosophila OR71a (Drosophila melanogaster, UniProt Q9VUK5); test: Calcium ion fluorescence (GCaMP6) assay, OR71a stable HEK293 cell line; format: cell-based; details: for Average response: VUAA1-normalized response, mean of biological replicates; for activation at 1 µM / activation at 10 µM / activation at 100 µM: HEK293, read-out: OR71a response (VUAA1-normalized response); for OR71a Average response (VUAA1-normalized): 50 μM VUAA1 = 1
T2 construct: expressed in transfected cells
T2 sequence (Q9VUK5 1-378): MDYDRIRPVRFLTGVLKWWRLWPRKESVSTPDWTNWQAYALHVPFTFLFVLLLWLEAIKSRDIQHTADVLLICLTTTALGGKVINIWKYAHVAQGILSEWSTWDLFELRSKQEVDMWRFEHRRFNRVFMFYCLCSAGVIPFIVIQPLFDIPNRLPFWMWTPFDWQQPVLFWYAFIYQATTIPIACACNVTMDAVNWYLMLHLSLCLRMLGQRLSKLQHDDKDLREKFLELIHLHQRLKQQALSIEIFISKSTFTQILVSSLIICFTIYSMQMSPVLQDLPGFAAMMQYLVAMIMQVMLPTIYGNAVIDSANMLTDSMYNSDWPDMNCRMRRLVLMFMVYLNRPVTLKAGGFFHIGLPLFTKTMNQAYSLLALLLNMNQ
T2 sequence (Q9VNB5 1-486 partner): T1 sequence (Q9VNB5 1-486 partner)
Outline: as §1

[3] = OR49b cell line, odorant cc. 1 µM
[4] = OR49b cell line, odorant cc. 10 µM
[5] = OR49b cell line, odorant cc. 100 µM
[6] = concentration 1, normalized fluorescence change, values below 0.05 threshold given as 0
[7] = concentration 10, normalized fluorescence change, values below 0.05 threshold given as 0
[8] = concentration 100, normalized fluorescence change, values below 0.05 threshold given as 0
[9] = VOC concentration 1 μM, read-out: OR49b response (VUAA1-normalized response)
[10] = VOC concentration 10 μM, read-out: OR49b response (VUAA1-normalized response)
[11] = VOC concentration 100 μM, read-out: OR49b response (VUAA1-normalized response)
[12] = ligand concentration 1 (unit not given), threshold 0.05, below shown as 0
[13] = ligand concentration 10 (unit not given), threshold 0.05, below shown as 0
[14] = ligand concentration 100 (unit not given), threshold 0.05, below shown as 0
[15] = ligand concentration 1 (unit not given), 0.05 threshold, values below shown as 0
[16] = ligand concentration 10 (unit not given), 0.05 threshold, values below shown as 0
[17] = ligand concentration 100 (unit not given), 0.05 threshold, values below shown as 0

Compound	Average response [1, 3]	Average response [1, 4]	Average response [1, 5]	Average response ([2]; OR71a cell line, cc. 1 µM)	Average response ([2]; OR71a cell line, cc. 10 µM)	Average response ([2]; OR71a cell line, cc. 100 µM)	DF norm AVERAGE OR71a [2, 6]	DF norm AVERAGE OR71a [2, 7]	DF norm AVERAGE OR71a [2, 8]	activation at 1 µM [1, 9]	activation at 10 µM [1, 10]	activation at 100 µM [1, 11]	activation at 1 µM [2]	activation at 10 µM [2]	activation at 100 µM [2]	further results
(-)-alpha-cedrene	0.00	0.0843	0.00	0.00	0.043	0.00	0	0	0	–	–	–	–	–	–	OR49b response (VUAA1-normalized response) ([1]; VOC concentration 1 μM): 0.00; OR49b response (VUAA1-normalized response) ([1]; VOC concentration 10 μM): 0.0843; OR49b response (VUAA1-normalized response) ([1]; VOC concentration 100 μM): 0.00; OR71a response (VUAA1-normalized response) ([2]; VOC concentration 1 μM): 0.00; OR71a response (VUAA1-normalized response) ([2]; VOC concentration 10 μM): 0.00; OR71a response (VUAA1-normalized response) ([2]; VOC concentration 100 μM): 0.00
COc1cccc(OC)c1 [1,3-dimethoxy benzene]	0.00	0.00	0.00	0.00	0.04	0.00	0	0	0	0%	0%	0%	0%	0%	0%	DF norm AVERAGE OR49b [1]: 0
CC(=O)OCC(C)C [isobutyl acetate]	0.05	0.0342	0.00	0.038	0.0316	0.00	–	–	–	5%	0%	0%	0%	0%	0%	DF norm AVERAGE OR49b [1, 12]: 0.05093; DF norm AVERAGE OR49b [1, 13]: 0; DF norm AVERAGE OR49b [1, 14]: 0; DF norm AVERAGE OR71a [2, 12]: 0; DF norm AVERAGE OR71a [2, 13]: 0; DF norm AVERAGE OR71a [2, 14]: 0
CCCCCC(C)O (centres unmarked) [2-heptanol]	0.00	0.00	0.0651	0.00	0.04	0.16	0	0	0.1631	0%	0%	6.51%	0%	0%	16%	OR71a Average response (VUAA1-normalized) ([2]; 1 μM VOC): 0.00; OR71a Average response (VUAA1-normalized) ([2]; 10 μM VOC): 0.04; OR71a Average response (VUAA1-normalized) ([2]; 100 μM VOC): 0.16
C=C1CC/C=C(\C)CC[C@@H]2[C@@H]1CC2(C)C [(-)-trans-caryophyllene]	0.00	0.00	0.00	0.0273	0.00	0.00	0	0	0	0%	0%	0%	0%	0%	0%	DF norm AVERAGE OR49b [1]: 0
Cc1cccc(C)c1 [m-xylene]	0.00	0.0251	0.27	0.00	0.00	0.00	–	–	–	–	–	–	–	–	–	activation at 1 µM ([1]; 1 μM VOC, 50 μM VUAA1 = 1, read-out: OR49b Average response (VUAA1-normalized)): 0%; activation at 10 µM ([1]; 10 μM VOC, 50 μM VUAA1 = 1, read-out: OR49b Average response (VUAA1-normalized)): 3%; activation at 100 µM ([1]; 100 μM VOC, 50 μM VUAA1 = 1, read-out: OR49b Average response (VUAA1-normalized)): 27%; OR49b response (VUAA1-normalized) at 1 μM ([1]; OR49b cell line, VOC concentration 1 μM): 0.00; OR49b response (VUAA1-normalized) at 10 μM ([1]; OR49b cell line, VOC concentration 10 μM): 0.00; OR49b response (VUAA1-normalized) at 100 μM ([1]; OR49b cell line, VOC concentration 100 μM): 0.27; DF norm AVERAGE OR49b [1, 12]: 0; DF norm AVERAGE OR49b [1, 13]: 0; DF norm AVERAGE OR49b [1, 14]: 0.2713; OR71a response (VUAA1-normalized) at 1 μM ([2]; OR71a cell line, VOC concentration 1 μM): 0.00; OR71a response (VUAA1-normalized) at 10 μM ([2]; OR71a cell line, VOC concentration 10 μM): 0.00; OR71a response (VUAA1-normalized) at 100 μM ([2]; OR71a cell line, VOC concentration 100 μM): 0.00; DF norm AVERAGE OR71a [2, 12]: 0; DF norm AVERAGE OR71a [2, 13]: 0; DF norm AVERAGE OR71a [2, 14]: 0
CC/C=C\CCOC(C)=O [z3-hexenyl acetate]	0.0379	0.0171	0.04	0.00	0.00	0.00	–	–	–	–	–	–	–	–	–	DF norm AVERAGE OR49b [1, 15]: 0; DF norm AVERAGE OR49b [1, 16]: 0; DF norm AVERAGE OR49b [1, 17]: 0; DF norm AVERAGE OR71a [2, 15]: 0; DF norm AVERAGE OR71a [2, 16]: 0; DF norm AVERAGE OR71a [2, 17]: 0
